Results taken from patent publication US12188040B2, “Method for enhancing gene expression using AAV vector” (priority 2018, dated 2025).
Several values for one entry are separate records, joined by “and”; a condition that tells them apart may be missing. Identical values can stand only once. Like-named read-outs stand apart in the source and are kept apart here.

Tests used:
[1] = system: HepG2 cells; assay: GFP expression in HepG2 cells infected with AAV3B-CMV-AcGFP in the presence of sucrose; conditions: Exp 3, AAV3B-CMV-AcGFP 5×10^8 vg/well, 3 days
Description: (§1) Three types of AAV vectors (AAV3B, yf2AAV9 and AAVGT4) were used.
(§2) To the culture cells of (b) above, 6×10^7 to 5×10^8 vg/well of AAV3B-CMV-AcGFP expressing GFP described in Item (a) above was added, or 2×10^9 vg/well of yf2AAV9-CMV-AcGFP was added, and then the cells were cultured for 3 to 6 days.
(§3) The fluorescence intensity of GFP was measured using a plate reader (BioTek Japan) and comparison thereof was made. Further, the images of typical view fields were taken using the fluorescence microscope (Olympus IX83).
(§4) On a 96 well Optical bottom plate, 5×10^4 cells/well of HepG2 cells were seeded, and 5×10^8 vg/well of AAVGT4-CMV-AcGFP or 5×10^8 vg/well of AAV3B-CMV-AcGFP was added to the medium on the next day. […] To a sucrose (−) control, the medium in the same amount as that of the sucrose solution was added. After cell cultivation for 3 days under 5% CO2 at 37° C. in an incubator, the fluorescence intensity of GFP was measured using the plate reader and comparison thereof was made.

[2] = system: HEK293 cells
Description: As the first procedure, 4 methods of the addition were carried out, including adding sucrose immediately (5 minutes or less) after the administration of the AAV vector, and the administration of the AAV vector immediately (5 minutes or less) after, 10 minutes after or 1 hour after adding sucrose to cells.
In the same manner as the above-described procedure, the GFP expression level was measured 3 days later.
In the same manner as the above-described procedures, the GFP expression level was measured 3 days later.
AAV3B-CMV-AcGFP was mixed in advance with sucrose at each of various concentrations, and the mixture was allowed to stand at room temperature for 1 hour followed by administration to cells. […] In order to prevent cell damage due to a buffer at the time of dilution of sucrose, medium replacement was carried out using a sucrose solution having the same concentration that was prepared by the medium 3 hours after the administration.

[3] = system: HEK293 cells; assay: GFP expression in HEK293 cells infected with yf2AAV9-CMV-AcGFP in the presence of sucrose; conditions: Exp 1, yf2AAV9-CMV-AcGFP 2×10^9 vg/well, 3 days
Description: as §2, §3
On a 96 well Optical bottom plate (ThermoFisher), 5×10^4 cells/well of HEK293 cells were seeded, and the next day, either 2×10^8 vg/well of AAV3B-CMV-AcGFP or 2×10^9 vg/well of yf2AAV9-CMV-AcGFP was added thereto. […] To a sucrose (−) control, the same amount of the medium as that of the sucrose solution was added. After cell cultivation for 3 days under 5% CO2 at 37° C. in an incubator, the fluorescence intensity of GFP was measured using the plate reader (BioTek Japan) and comparison thereof was made (FIG. 1A). Further, the images of typical view fields were taken using the fluorescence microscope (Olympus IX83) (FIG. 1B).

[4] = system: HepG2 cells; assay: GFP expression in HepG2 cells infected with AAVGT4-CMV-AcGFP in the presence of sucrose; conditions: Exp 3, AAVGT4-CMV-AcGFP 5×10^8 vg/well, 3 days
Description: as §1, §2, §3, §4

[5] = Exp 2, AAV3B 6×10^7 vg/well, iso-osmotic additives: sucrose 125.0, glucose 132.3, mannitol 132.3, NaCl 71.5 mM, 3 days
[6] = Exp 6, sucrose 187 mM, data not shown

OC[C@H]1O[C@@](CO)(O[C@H]2O[C@H](CO)[C@@H](O)[C@H](O)[C@H]2O)[C@@H](O)[C@@H]1O [Sucrose, sucrose]
(+)/(−) GFP expression increase ([1]; sucrose 125 mM vs none): 16.1 times
GFP fluorescence intensity ([1]; sucrose 125 mM): 970.8
GFP fluorescence intensity ([2]; Exp 1, AAV3B-CMV-AcGFP 2×10^8 vg/well, sucrose 125 mM final, 3 days): 9257.45
(+)/(−) GFP expression increase ([2]; Exp 1, AAV3B-CMV-AcGFP 2×10^8 vg/well, sucrose 125 mM vs no sucrose, 3 days): 15.4 times
GFP intensity [2, 5]: 1844.8
Relativeness (vs No Additive) [2, 5]: 11 times and 11.2 times
Fluorescence Intensity ([2]; Exp 4A, AAV3B 1×10^8 vg/well, AAV 10 min after sucrose 125 mM, 3 days): 2580.3
Fluorescence Intensity ([2]; Exp 4A, AAV3B 1×10^8 vg/well, AAV 1 hr after sucrose 125 mM, 3 days): 3047
Fluorescence Intensity ([2]; Exp 4A, AAV3B 1×10^8 vg/well, AAV immediately after sucrose 125 mM, 3 days): 2356.2
Fluorescence Intensity ([2]; Exp 4A, AAV3B 1×10^8 vg/well, sucrose 125 mM added immediately after AAV, 3 days): 2500.8
Relativeness (vs Sucrose(−)) ([2]; Exp 4A, AAV 10 min after sucrose 125 mM, 3 days): 10.5
Relativeness (vs Sucrose(−)) ([2]; Exp 4A, AAV 1 hr after sucrose 125 mM, 3 days): 12.4
Relativeness (vs Sucrose(−)) ([2]; Exp 4A, AAV immediately after sucrose 125 mM, 3 days): 9.6
Relativeness (vs Sucrose(−)) ([2]; Exp 4A, sucrose 125 mM added immediately after AAV, 3 days): 10.2
Increase of expression ([2]; Exp 4A, sucrose 125 mM, any of the adding methods, 3 days): about 10 times
Fluorescence Intensity ([2]; Exp 4B, AAV3B 1×10^8 vg/well premixed with sucrose (125 mM final), administered 1 hr after mixing, 3 days): 3049.8
Fluorescence Intensity ([2]; Exp 4B, AAV3B 1×10^8 vg/well premixed with sucrose (125 mM final), administered immediately after mixing, 3 days): 3002.5
Relativeness (vs (−) => (−)) ([2]; Exp 4C, (+) => (+): sucrose from immediately after AAV, 3 days): 4.9 times
Relativeness (vs (−) => (−)) ([2]; Exp 4C, (−) => (+): sucrose added 3 hours later, 3 days): 2.8 times
Fluorescence Intensity ([2]; Exp 4C, AAV3B 1×10^8 vg/well, (+) => (+): sucrose 125 mM from immediately after AAV, 3 days): 534.5
Fluorescence Intensity ([2]; Exp 4C, AAV3B 1×10^8 vg/well, (−) => (+): sucrose 125 mM only from medium replacement 3 h after AAV, 3 days): 309.8
Optimum concentration for expression enhancement ([2]; Exp 6, after 3 days): 150 mM
Fluorescence Intensity ([2]; Exp 6, sucrose 80 mM, AAV3B 1×10^8 vg/well premixed 1 h, 3 days): 1026.0
Relativeness (vs 0 mM) ([2]; Exp 6, sucrose 90 mM, 3 days): 6.4
Fluorescence Intensity ([2]; Exp 6, sucrose 90 mM, AAV3B 1×10^8 vg/well premixed 1 h, 3 days): 1230.5
Relativeness (vs 0 mM) ([2]; Exp 6, sucrose 100 mM, 3 days): 8.1
Fluorescence Intensity ([2]; Exp 6, sucrose 100 mM, AAV3B 1×10^8 vg/well premixed 1 h, 3 days): 1568.3
Relativeness (vs 0 mM) ([2]; Exp 6, sucrose 105 mM, 3 days): 9.2
Fluorescence Intensity ([2]; Exp 6, sucrose 105 mM, AAV3B 1×10^8 vg/well premixed 1 h, 3 days): 1769.3
Relativeness (vs 0 mM) ([2]; Exp 6, sucrose 110 mM, 3 days): 10.1
Fluorescence Intensity ([2]; Exp 6, sucrose 110 mM, AAV3B 1×10^8 vg/well premixed 1 h, 3 days): 1952.3
Relativeness (vs 0 mM) ([2]; Exp 6, sucrose 115 mM, 3 days): 12.2
Fluorescence Intensity ([2]; Exp 6, sucrose 115 mM, AAV3B 1×10^8 vg/well premixed 1 h, 3 days): 2351.3
Relativeness (vs 0 mM) ([2]; Exp 6, sucrose 120 mM, 3 days): 15.3
Fluorescence Intensity ([2]; Exp 6, sucrose 120 mM, AAV3B 1×10^8 vg/well premixed 1 h, 3 days): 2941.0
Relativeness (vs 0 mM) ([2]; Exp 6, sucrose 125 mM, 3 days): 18.8
Fluorescence Intensity ([2]; Exp 6, sucrose 125 mM, AAV3B 1×10^8 vg/well premixed 1 h, 3 days): 3626.8
Relativeness (vs 0 mM) ([2]; Exp 6, sucrose 130 mM, 3 days): 21.1
Fluorescence Intensity ([2]; Exp 6, sucrose 130 mM, AAV3B 1×10^8 vg/well premixed 1 h, 3 days): 4069.0
Relativeness (vs 0 mM) ([2]; Exp 6, sucrose 135 mM, 3 days): 25.0
Fluorescence Intensity ([2]; Exp 6, sucrose 135 mM, AAV3B 1×10^8 vg/well premixed 1 h, 3 days): 4813.3
Relativeness (vs 0 mM) ([2]; Exp 6, sucrose 140 mM, 3 days): 29.2
Fluorescence Intensity ([2]; Exp 6, sucrose 140 mM, AAV3B 1×10^8 vg/well premixed 1 h, 3 days): 5620.5
Fluorescence Intensity ([2]; Exp 6, sucrose 145 mM, AAV3B 1×10^8 vg/well premixed 1 h, 3 days): 5763.8
Fluorescence Intensity ([2]; Exp 6, sucrose 150 mM, AAV3B 1×10^8 vg/well premixed 1 h, 3 days): 6411.8
Fluorescence Intensity ([2]; Exp 6, sucrose 160 mM, AAV3B 1×10^8 vg/well premixed 1 h, 3 days): 5922.5
Cell damage [2, 6]: damaged and detached
Decrease of GFP intensity [2, 6]: about 20%
Fluorescence Intensity ([2]; Exp 8, disaccharide 100 mM in medium, AAV3B 1×10^8 vg/well, Day 3): 1312.7
Relativeness (vs No Sugar) ([2]; Exp 8, disaccharide 100 mM, Day 3): 2.2
Fluorescence Intensity ([2]; Exp 8, disaccharide 125 mM in medium, AAV3B 1×10^8 vg/well, Day 3): 1760.5
Relativeness (vs No Sugar) ([2]; Exp 8, disaccharide 125 mM, Day 3): 2.9
Fluorescence Intensity ([2]; Exp 8, disaccharide 150 mM in medium, AAV3B 1×10^8 vg/well, Day 3): 2979.5
Fluorescence Intensity ([2]; Exp 8, disaccharide 150 mM, AAV3B 1×10^8 vg/well, Day 1): 434.5
Fluorescence Intensity ([2]; Exp 8, disaccharide 150 mM, AAV3B 1×10^8 vg/well, Day 2): 1657.3
Fluorescence Intensity ([2]; Exp 8, disaccharide 150 mM, AAV3B 1×10^8 vg/well, Day 6): 7908.0
Relativeness (vs No Sugar) ([2]; Exp 8, disaccharide 150 mM, Day 3): 4.9
GFP fluorescence intensity ([3]; sucrose 125 mM final): 321.4
(+)/(−) GFP expression increase ([3]; sucrose 125 mM vs no sucrose): 19.6 times
(+)/(−) GFP expression increase ([4]; sucrose 125 mM vs none): 19.1 times
GFP fluorescence intensity ([4]; sucrose 125 mM): 579.8
